Legend:
Type in all cases: cell-based
[1] = tested on: beneficial oral bacteria and pathogenic oral bacteria; experiment: Metabolic activity, whole panel: prebiotic effect; settings: for prebiotic effects (metabolic activity): threshold value of 2
Description: Substrates that were able to increase the metabolic activity of at least one of the above beneficial bacteria while not or only minimally increasing the growth of the pathogenic bacteria are considered to be prebiotic substrates. The extent of metabolic activity of the tested bacteria in the presence of the above-mentioned dipeptides after 24 hours and 48 hours was investigated through a high throughput phenotype microarray system (PM) for microbial cells (Biolog Inc.). Each PM can contain up to 95 different biochemical compounds (e.g. di-peptides) that may act as substrates for bacteria as well as one negative control, not containing the substrates. Microarray plates were used in which the different wells of each plate were pre-loaded (by the manufacturer, Biolog Inc.) with different di-peptides to be tested. Each bacterial species was tested using a separate microarray plate. Thus, a single bacterial species was tested with a variety of dipeptides on each particular plate. The microarrays are based on redox technology, using cell respiration as a universal reporter. Active cell respiration results in the reduction of a tetrazolium dye and in the formation of a strong color—for example, when using the tetrazolium dye “Biolog Redox Dye Mix D”, the color changes from transparent/colourless to purple when the dye is reduced. The observation of this color change indicates which of the substrates improve the metabolic activity and health of the cells. Each bacterial species was collected from blood agar plates (incubated for 48 hours anaerobically at 37° C.) and transferred to an IF-0 Base inoculation fluid (Biolog Inc.), which is a nutritionally poor medium. The resulting cell suspension was adjusted to a transmittance of 42% (relative to the transmittance of the base inoculation fluid with no bacterial species present) at 492 nm using a BioRad SmartSpec 3000 Photometer (the adjustment being effected by adding either further inoculation fluid or further bacteria until the transmittance of 42% was achieved). A 1:5 dilution of this suspension was prepared by mixing 3 mL of the 42% transmittance cell suspension with 15 mL of an inoculation fluid (which inoculation fluid was formed by mixing 11.6 mL sterile water, 62.5 mL IF-0 base inoculation fluid and 0.9 mL of the tetrazolium dye “Biolog Redox Dye mix D”), resulting in a final cell density which was equal to 85% transmittance using a BioRad SmartSpec 3000 Photometer. 680 μL of a 2M sodium succinate/200 μM ferric citrate solution in distilled water was added to 68 mL of the 85% transmittance cell suspension and 100 μL of this mixture was added to each well (the various di-peptides being already present in powder form in the relevant wells of the plate as obtained from the supplier i.e. Biolog Inc.). All plates were incubated in an anaerobic atmosphere at 37° C. Color changes were measured spectrophotometrically at 492 nm (Thermo Scientific Multiskan Ascent) at 24 hrs and 48 hrs using the same plate at both time points. […] After 24 hrs and 48 hrs under continuous shaking in a Multiscan microplate reader, the optical density (OD) of the synthetic medium at 24 hours and 48 hours was measured (using the microplate reader) at a wavelength of 492 nm for each combination of bacterium/dipeptide, and for each of their respective controls (i.e. which contained the particular bacterium but no dipeptide). […] The experiment was carried out three times for each combination of bacterium with dipeptide, with each repeat being carried out on a different day (thus providing three biological replicas). The controls were also carried out three times, as above. The values shown are the average (mean) of the three single values obtained (as detailed above) for each combination of bacterium with dipeptide, at 24 hrs and at 48 hrs. […] This value was selected in order to exclude low-stimulating metabolites and avoid false positive results.

Actinomyces naeslundii = experiment: Metabolic activity, Biolog phenotype microarray; settings: control without dipeptide = 1
Description: (§1) The extent of metabolic activity of the tested bacteria in the presence of the above-mentioned dipeptides after 24 hours and 48 hours was investigated through a high throughput phenotype microarray system (PM) for microbial cells (Biolog Inc.). Each PM can contain up to 95 different biochemical compounds (e.g. di-peptides) that may act as substrates for bacteria as well as one negative control, not containing the substrates. Microarray plates were used in which the different wells of each plate were pre-loaded (by the manufacturer, Biolog Inc.) with different di-peptides to be tested. Each bacterial species was tested using a separate microarray plate. Thus, a single bacterial species was tested with a variety of dipeptides on each particular plate. The microarrays are based on redox technology, using cell respiration as a universal reporter. Active cell respiration results in the reduction of a tetrazolium dye and in the formation of a strong color—for example, when using the tetrazolium dye “Biolog Redox Dye Mix D”, the color changes from transparent/colourless to purple when the dye is reduced. The observation of this color change indicates which of the substrates improve the metabolic activity and health of the cells. Each bacterial species was collected from blood agar plates (incubated for 48 hours anaerobically at 37° C.) and transferred to an IF-0 Base inoculation fluid (Biolog Inc.), which is a nutritionally poor medium. The resulting cell suspension was adjusted to a transmittance of 42% (relative to the transmittance of the base inoculation fluid with no bacterial species present) at 492 nm using a BioRad SmartSpec 3000 Photometer (the adjustment being effected by adding either further inoculation fluid or further bacteria until the transmittance of 42% was achieved). A 1:5 dilution of this suspension was prepared by mixing 3 mL of the 42% transmittance cell suspension with 15 mL of an inoculation fluid (which inoculation fluid was formed by mixing 11.6 mL sterile water, 62.5 mL IF-0 base inoculation fluid and 0.9 mL of the tetrazolium dye “Biolog Redox Dye mix D”), resulting in a final cell density which was equal to 85% transmittance using a BioRad SmartSpec 3000 Photometer. 680 μL of a 2M sodium succinate/200 μM ferric citrate solution in distilled water was added to 68 mL of the 85% transmittance cell suspension and 100 μL of this mixture was added to each well (the various di-peptides being already present in powder form in the relevant wells of the plate as obtained from the supplier i.e. Biolog Inc.). All plates were incubated in an anaerobic atmosphere at 37° C. Color changes were measured spectrophotometrically at 492 nm (Thermo Scientific Multiskan Ascent) at 24 hrs and 48 hrs using the same plate at both time points. […] After 24 hrs and 48 hrs under continuous shaking in a Multiscan microplate reader, the optical density (OD) of the synthetic medium at 24 hours and 48 hours was measured (using the microplate reader) at a wavelength of 492 nm for each combination of bacterium/dipeptide, and for each of their respective controls (i.e. which contained the particular bacterium but no dipeptide). […] The experiment was carried out three times for each combination of bacterium with dipeptide, with each repeat being carried out on a different day (thus providing three biological replicas). The controls were also carried out three times, as above. The values shown are the average (mean) of the three single values obtained (as detailed above) for each combination of bacterium with dipeptide, at 24 hrs and at 48 hrs.

Actinomyces viscosus = experiment: Metabolic activity, Biolog phenotype microarray; settings: control without dipeptide = 1
Description: as §1

Streptococcus sobrinus = experiment: Metabolic activity, Biolog phenotype microarray; settings: control without dipeptide = 1
Description: as §1

Streptococcus salivarius = experiment: Metabolic activity, Biolog phenotype microarray; settings: control without dipeptide = 1
Description: as §1

Fusobacterium nucleatum = experiment: Metabolic activity, Biolog phenotype microarray; settings: control without dipeptide = 1
Description: as §1

[2] = tested on: Aggregatibacter actinomycetemcomitans; experiment: Metabolic activity, Biolog phenotype microarray; settings: control without dipeptide = 1
Description: as §1

Tannerella forsythia = experiment: Metabolic activity, Biolog phenotype microarray; settings: control without dipeptide = 1
Description: as §1

Streptococcus mitis = experiment: Metabolic activity, Biolog phenotype microarray; settings: control without dipeptide = 1
Description: as §1

Porphyromonas gingivalis = experiment: Metabolic activity, Biolog phenotype microarray; settings: control without dipeptide = 1
Description: as §1

Capnocytophaga sputigena = experiment: Metabolic activity, Biolog phenotype microarray; settings: control without dipeptide = 1
Description: as §1

Veillonella parvula = experiment: Metabolic activity, Biolog phenotype microarray; settings: control without dipeptide = 1
Description: as §1

Streptococcus sanguinis = experiment: Metabolic activity, Biolog phenotype microarray; settings: control without dipeptide = 1
Description: as §1

Streptococcus mutans = experiment: Metabolic activity, Biolog phenotype microarray; settings: control without dipeptide = 1
Description: as §1

Streptococcus gordonii = experiment: Metabolic activity, Biolog phenotype microarray; settings: control without dipeptide = 1
Description: as §1

Prevotella intermedia = experiment: Metabolic activity, Biolog phenotype microarray; settings: control without dipeptide = 1
Description: as §1

Row | Substance | metabolic activity: OD 492 nm divided by OD of control (Actinomyces naeslundii; 24 hrs) | metabolic activity: OD 492 nm divided by OD of control (Actinomyces naeslundii; 48 hrs) | metabolic activity: OD 492 nm divided by OD of control (Actinomyces viscosus; 24 hrs) | metabolic activity: OD 492 nm divided by OD of control (Actinomyces viscosus; 48 hrs) | metabolic activity: OD 492 nm divided by OD of control (Streptococcus sobrinus; 24 hrs) | metabolic activity: OD 492 nm divided by OD of control (Streptococcus sobrinus; 48 hrs) | metabolic activity: OD 492 nm divided by OD of control (Streptococcus salivarius; 24 hrs) | metabolic activity: OD 492 nm divided by OD of control (Streptococcus salivarius; 48 hrs) | metabolic activity: OD 492 nm divided by OD of control (Fusobacterium nucleatum; 24 hrs) | metabolic activity: OD 492 nm divided by OD of control (Fusobacterium nucleatum; 48 hrs) | metabolic activity: OD 492 nm divided by OD of control ([2]; 24 hrs) | metabolic activity: OD 492 nm divided by OD of control ([2]; 48 hrs) | metabolic activity: OD 492 nm divided by OD of control (Tannerella forsythia; 24 hrs) | metabolic activity: OD 492 nm divided by OD of control (Tannerella forsythia; 48 hrs) | metabolic activity: OD 492 nm divided by OD of control (Streptococcus mitis; 24 hrs) | metabolic activity: OD 492 nm divided by OD of control (Streptococcus mitis; 48 hrs) | metabolic activity: OD 492 nm divided by OD of control (Porphyromonas gingivalis; 24 hrs) | metabolic activity: OD 492 nm divided by OD of control (Porphyromonas gingivalis; 48 hrs) | metabolic activity: OD 492 nm divided by OD of control (Capnocytophaga sputigena; 24 hrs) | metabolic activity: OD 492 nm divided by OD of control (Capnocytophaga sputigena; 48 hrs) | other results
1 | Trp-Leu | 1.1778 | 1.4354 | 1.6496 | 2.0774 | 1.1681 | 1.2761 | 1.0960 | 1.1505 | 0.9945 | 1.0254 | 1.0357 | 1.1455 | 1.0234 | 1.1079 | 1.0445 | 1.0524 | 1.0236 | 1.2127 | 0.8565 | 0.9454 | prebiotic effects (metabolic activity) ([1]; 48 hrs): exhibited prebiotic effects; metabolic activity: OD 492 nm divided by OD of control (Veillonella parvula; 24 hrs): 0.8734; metabolic activity: OD 492 nm divided by OD of control (Veillonella parvula; 48 hrs): 0.7918; metabolic activity: OD 492 nm divided by OD of control (Streptococcus sanguinis; 24 hrs): 0.9310; metabolic activity: OD 492 nm divided by OD of control (Streptococcus sanguinis; 48 hrs): 0.9561; metabolic activity: OD 492 nm divided by OD of control (Streptococcus mutans; 24 hrs): 1.0145; metabolic activity: OD 492 nm divided by OD of control (Streptococcus mutans; 48 hrs): 1.1337; metabolic activity: OD 492 nm divided by OD of control (Streptococcus gordonii; 24 hrs): 1.2109; metabolic activity: OD 492 nm divided by OD of control (Streptococcus gordonii; 48 hrs): 1.2858; metabolic activity: OD 492 nm divided by OD of control (Prevotella intermedia; 24 hrs): 1.0663; metabolic activity: OD 492 nm divided by OD of control (Prevotella intermedia; 48 hrs): 1.0399
2 | Ser-Leu | 1.4949 | 1.8831 | 2.2523 | 2.5540 | 1.4887 | 2.0704 | 1.4865 | 2.0833 | 1.4813 | 1.7358 | 1.6871 | 2.2912 | 1.3950 | 1.8466 | 1.6052 | 2.0461 | 1.4626 | 1.8440 | 1.9645 | 1.6522 | prebiotic effects (metabolic activity) ([1]; 24 hrs): exhibited prebiotic effects; speed of metabolism by beneficial versus pathogenic bacteria ([1]; value of 2 reached at 24 hrs for beneficial but not pathogenic bacteria): metabolized faster by the beneficial bacteria than by the pathogenic bacteria; metabolic activity: OD 492 nm divided by OD of control (Veillonella parvula; 24 hrs): 1.4153; metabolic activity: OD 492 nm divided by OD of control (Veillonella parvula; 48 hrs): 1.4281; metabolic activity: OD 492 nm divided by OD of control (Streptococcus sanguinis; 24 hrs): 1.2625; metabolic activity: OD 492 nm divided by OD of control (Streptococcus sanguinis; 48 hrs): 1.6049; metabolic activity: OD 492 nm divided by OD of control (Streptococcus mutans; 24 hrs): 1.6244; metabolic activity: OD 492 nm divided by OD of control (Streptococcus mutans; 48 hrs): 2.2977; metabolic activity: OD 492 nm divided by OD of control (Streptococcus gordonii; 24 hrs): 1.5333; metabolic activity: OD 492 nm divided by OD of control (Streptococcus gordonii; 48 hrs): 1.8912; metabolic activity: OD 492 nm divided by OD of control (Prevotella intermedia; 24 hrs): 1.5403; metabolic activity: OD 492 nm divided by OD of control (Prevotella intermedia; 48 hrs): 1.8484

Source: patent US10159640B2, “Prebiotic oral care compositions containing amino acids” (COLGATE-PALMOLIVE COMPANY, priority 2013, dated 2018)
